From patent publication US11155523B2, “Biphenyl compound as CCR2/CCR5 receptor antagonist” (Medshine Discovery Inc., priority 2016, dated 2021)

The compounds below were run against T1, CCR5 (Homo sapiens, UniProt P51681) (assay: CCR5 in vitro test: intracellular calcium signal detected by FLIPR). Conditions: HEK293 cells expressing CCR5, agonist RANTES at EC80, calcium signal.
T1 construct: expressed in transfected cells; host or cells: HEK293, clone C13, passage P4
Format: cell-based
Description: (§1) Experimental Example 1: CCR2/CCR5 In Vitro Test
(§2) The intracellular calcium signal was detected by FLIPR, and the IC50 value of the compound was used as an index to evaluate the inhibitory effect of the compound on CCR2 and CCR5 receptors.
(§3) 1. Cell line: The cells were inoculated and incubated in a 5% CO2 incubator at 37° C. overnight.
(§4) CCR2/CCR5 density: 1 M (20 k/well)
(§5) 2. Reagents: Fluo-4 Direct, (Invitrogen, Cat #F10471)
(§6) The compound was dissolved in DMSO to prepare a 10 mM solution, and the compound solution was placed in a nitrogen box.
(§7) Agonist reference compounds:
(§8) Preparation of probenecid in FLIPR assay buffer: 1 mL of FLIPR assay buffer was added to […] of probenecid to prepare a 250 mM solution, which is prepared fresh daily.
(§9) 2× (8 μM) Fluo-4 Direct™ Loading Buffer (per 10 mL) • Thaw a bottle of Fluo-4 Direct™ crystal (F10471). • Add 10 mL of FLIPR assay buffer to the vial. • Add 0.2 mL of probenecid to each 10 mL of Fluo-Direct. The final concentration of the assay was 2.5 mM. • Rotate it and place for >5 minutes (in absence of light). • Prepare fresh daily.
(§10) MCP-1 was diluted in FLIPR assay buffer 1:2 into 10 points, starting at 0.5 uM (final 100 nM). RANTES was diluted in FLIPR assay buffer 1:3 into 10 points, starting at 0.5 uM (final 100 nM). 20 uL of serially diluted compound buffer was added to each well of the DRC plate according to the compound plate map.
(§11) Standard compound was diluted in DMSO 1:3 into 11 points, starting at 1 mM. Test compound was diluted in DMSO 1:3 into 11 points, starting at 2 mM. 250 nL of compound solution was transferred into a cell plate using Echo (Greiner #781946).
(§12) (c) Take the cell plate out of the incubator, and gently dispense 20 uL of 2× Fluo-4 Direct wash-free loading buffer into a 384-well cell culture plate using a pipette. The final cell plate is 40 μL in volume.
(§13) (d) Incubate for 50 minutes at 37° C. under 5% CO2, and for 10 minutes at room temperature.
(§14) (e) Take the cell plate out of the incubator, and place it in FLIPR. Place the composite plate and the tip box in FLIPR.
(§15) (f) For DRC plate: • 1) Run the program on FLIPRTETRA. • 2) Read the fluorescent signal. • 3) Transfer 10 μL of compound from the DRC plate to the cell plate. • 4) Read the fluorescent signal. • 5) Calculate the “maximum−minimum” from Read 90 to the maximum allowed. Use FLIPR to calculate the EC80 value of each cell line. • 6) Prepare 5×EC80 concentration of the agonist reference compound.
(§16) (g) For the composite plate (1-add): • 1) Run the program on FLIPRTETRA. • 2) Transfer 10 μl, of 5×EC80 concentration of the agonist reference compound from the composite plate to the cell plate. • 3) Read the fluorescent signal. • 4) Calculate the “maximum−minimum” from Read 90 to the maximum allowed.
(§17) (h) Analyze the data using Prism, and calculate the IC50 value of the compound.

T1 sequence (P51681 whole entry, species assumed): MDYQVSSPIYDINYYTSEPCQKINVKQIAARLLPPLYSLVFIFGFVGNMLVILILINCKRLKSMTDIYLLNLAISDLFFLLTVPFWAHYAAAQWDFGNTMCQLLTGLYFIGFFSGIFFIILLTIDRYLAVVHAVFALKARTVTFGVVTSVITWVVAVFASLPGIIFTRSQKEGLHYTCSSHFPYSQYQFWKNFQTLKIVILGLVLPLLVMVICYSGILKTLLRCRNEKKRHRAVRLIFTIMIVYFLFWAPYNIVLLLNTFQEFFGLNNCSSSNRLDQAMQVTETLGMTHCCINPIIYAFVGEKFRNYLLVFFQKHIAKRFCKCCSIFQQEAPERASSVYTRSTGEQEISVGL

| Compound | IC50 [nM] |
| --- | --- |
| CCCCOCCOc1ccc(-c2cccc(/C=C/C(=O)Nc3ccc([S@@+]([O-])Cc4cncn4CCC)cc3)c2)cc1 [WX001] | 9.3 |
| CCCn1cncc1C[S@+]([O-])c1ccc(NC(=O)/C=C/c2cccc(-c3ccc(OC)cc3)c2)cc1 [WX002] | 113 |
| CCCCOCCOc1ccc(-c2ccc(F)c(/C=C/C(=O)Nc3ccc([S@@+]([O-])Cc4cncn4CCC)cc3)c2)cc1 [WX003] | 3 |
| CCCn1cncc1C[S@+]([O-])c1ccc(NC(=O)/C=C/c2cccc(-c3ccc(OCC)cc3)c2)cc1 [WX004] | 7.1 |
| CCCCOCCOc1ccc(-c2ccc(CC)c(/C=C/C(=O)Nc3ccc([S@@+]([O-])Cc4cncn4CCC)cc3)c2)cc1 [WX005] | 3.4 |
| CCCCOCCOc1ccc(-c2ccc(C(C)C)c(/C=C/C(=O)Nc3ccc([S@@+]([O-])Cc4cncn4CCC)cc3)c2)cc1 [WX006] | 3.3 |
| CCCn1cncc1C[S@+]([O-])c1ccc(NC(=O)/C=C/c2cccc(-c3ccc(OC(C)C)cc3)c2)cc1 [WX007] | 6.4 |
| CCCCOCCOc1ccc(-c2cccc(/C=C(\C)C(=O)Nc3ccc([S@@+]([O-])Cc4cncn4CCC)cc3)c2)cc1 [WX008] | 1.5 |
| CCCCOc1ccc(-c2cccc(/C=C/C(=O)Nc3ccc([S@@+]([O-])Cc4cncn4CCC)cc3)c2)cc1 [WX009] | 9.4 |
| CCCCOCCOc1ccc(-c2cccc(/C=C/C(=O)Nc3ccc([S@@+]([O-])Cc4nncn4CCC)cc3)c2)cc1 [WX010] | 17.2 |
| CCCCOCCOc1ccc(-c2ccc(C)c(/C=C/C(=O)Nc3ccc([S@@+]([O-])Cc4cncn4CCC)cc3)c2)cc1 [WX011] | 2.6 |
| CCCCOCCOc1ccc(-c2cccc(/C(C)=C/C(=O)Nc3ccc([S@@+]([O-])Cc4cncn4CCC)cc3)c2)cc1 [WX012] | 5.4 |
| CCCn1cncc1C[S@+]([O-])c1ccc(NC(=O)/C=C/c2cccc(-c3ccc(OCCOC)cc3)c2)cc1 [WX013] | 14.2 |
| CCCCOCCOc1ccc(-c2ccc(F)c(/C(C)=C/C(=O)Nc3ccc([S@@+]([O-])Cc4cncn4CCC)cc3)c2)cc1 [WX014] | 7.9 |
| CCCOc1ccc(-c2cccc(/C=C(\C)C(=O)Nc3ccc([S+]([O-])Cc4nncn4CCC)cc3)c2)cc1 (centres unmarked) [WX015] | 65.1 |
| CCCCOCCOc1ccc(-c2ccc(Cl)c(/C=C/C(=O)Nc3ccc([S@@+]([O-])Cc4cncn4CCC)cc3)c2)cc1 [WX016] | 4.5 |
| CCCCOc1ccc(-c2ccc(OC(F)F)c(/C=C/C(=O)Nc3ccc([S@@+]([O-])Cc4cncn4CCC)cc3)c2)cc1 [WX018] | 7.3 |
| CCCCOCCOc1ccc(-c2cccc(/C=C/C(=O)Nc3ccc([S+]([O-])Cc4cncn4CC)cc3)c2)cc1 (centres unmarked) [WX019] | 50.9 |
| CCCCOc1ccc(-c2ccc(Cl)c(/C=C/C(=O)Nc3ccc([S+]([O-])Cc4cncn4CC)cc3)c2)cc1 (centres unmarked) [WX020] | 8.2 |
| CCCCOc1ccc(-c2ccc(Cl)c(/C=C/C(=O)Nc3ccc([S+]([O-])Cc4cncn4CC4CC4)cc3)c2)cc1 (centres unmarked) [WX021] | 8.8 |
| CCCn1cncc1C[S@+]([O-])c1ccc(NC(=O)/C=C/c2cc(-c3ccc(OCCCF)cc3)ccc2Cl)cc1 [WX022] | 10.1 |
| CCCCOCCOc1ccc(-c2cccc(/C=C/C(=O)Nc3ccc([S+]([O-])Cc4cncn4CC4CC4)cc3)c2)cc1 (centres unmarked) [WX023] | 53.3 |

The compounds below were run against T2, CCR2 (Homo sapiens, UniProt P41597) (assay: CCR2 in vitro test: intracellular calcium signal detected by FLIPR). Conditions: HEK293 cells expressing CCR2, agonist MCP-1 at EC80, calcium signal.
T2 construct: expressed in transfected cells; host or cells: HEK293, clone C7, passage P6
T2 sequence (P41597 whole entry, species assumed): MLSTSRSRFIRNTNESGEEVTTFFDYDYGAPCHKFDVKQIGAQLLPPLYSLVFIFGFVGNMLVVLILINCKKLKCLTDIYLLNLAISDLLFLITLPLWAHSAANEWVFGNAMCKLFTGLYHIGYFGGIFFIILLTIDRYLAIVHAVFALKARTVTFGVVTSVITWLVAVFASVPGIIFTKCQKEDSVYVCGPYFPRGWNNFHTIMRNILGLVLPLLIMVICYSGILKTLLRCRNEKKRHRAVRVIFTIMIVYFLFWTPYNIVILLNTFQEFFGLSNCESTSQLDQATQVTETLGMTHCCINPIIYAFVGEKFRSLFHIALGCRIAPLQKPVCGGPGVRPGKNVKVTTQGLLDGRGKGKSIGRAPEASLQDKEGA
Format: cell-based
Description: as §1, §2, §3, §4, §5, §6, §7, §8, §9, §10, §11, §12, §13, §14, §15, §16, §17

| Compound | IC50 [nM] |
| --- | --- |
| CCCCOCCOc1ccc(-c2cccc(/C=C/C(=O)Nc3ccc([S@@+]([O-])Cc4cncn4CCC)cc3)c2)cc1 [WX001] | 29.9 |
| CCCn1cncc1C[S@+]([O-])c1ccc(NC(=O)/C=C/c2cccc(-c3ccc(OC)cc3)c2)cc1 [WX002] | 319 |
| CCCCOCCOc1ccc(-c2ccc(F)c(/C=C/C(=O)Nc3ccc([S@@+]([O-])Cc4cncn4CCC)cc3)c2)cc1 [WX003] | 21.6 |
| CCCn1cncc1C[S@+]([O-])c1ccc(NC(=O)/C=C/c2cccc(-c3ccc(OCC)cc3)c2)cc1 [WX004] | 153 |
| CCCCOCCOc1ccc(-c2ccc(CC)c(/C=C/C(=O)Nc3ccc([S@@+]([O-])Cc4cncn4CCC)cc3)c2)cc1 [WX005] | 12.1 |
| CCCCOCCOc1ccc(-c2ccc(C(C)C)c(/C=C/C(=O)Nc3ccc([S@@+]([O-])Cc4cncn4CCC)cc3)c2)cc1 [WX006] | 32.1 |
| CCCn1cncc1C[S@+]([O-])c1ccc(NC(=O)/C=C/c2cccc(-c3ccc(OC(C)C)cc3)c2)cc1 [WX007] | 65.2 |
| CCCCOCCOc1ccc(-c2cccc(/C=C(\C)C(=O)Nc3ccc([S@@+]([O-])Cc4cncn4CCC)cc3)c2)cc1 [WX008] | 17.3 |
| CCCCOc1ccc(-c2cccc(/C=C/C(=O)Nc3ccc([S@@+]([O-])Cc4cncn4CCC)cc3)c2)cc1 [WX009] | 63.2 |
| CCCCOCCOc1ccc(-c2cccc(/C=C/C(=O)Nc3ccc([S@@+]([O-])Cc4nncn4CCC)cc3)c2)cc1 [WX010] | 214 |
| CCCCOCCOc1ccc(-c2ccc(C)c(/C=C/C(=O)Nc3ccc([S@@+]([O-])Cc4cncn4CCC)cc3)c2)cc1 [WX011] | 61 |
| CCCCOCCOc1ccc(-c2cccc(/C(C)=C/C(=O)Nc3ccc([S@@+]([O-])Cc4cncn4CCC)cc3)c2)cc1 [WX012] | 51 |
| CCCn1cncc1C[S@+]([O-])c1ccc(NC(=O)/C=C/c2cccc(-c3ccc(OCCOC)cc3)c2)cc1 [WX013] | 984 |
| CCCCOCCOc1ccc(-c2ccc(F)c(/C(C)=C/C(=O)Nc3ccc([S@@+]([O-])Cc4cncn4CCC)cc3)c2)cc1 [WX014] | 258 |
| CCCOc1ccc(-c2cccc(/C=C(\C)C(=O)Nc3ccc([S+]([O-])Cc4nncn4CCC)cc3)c2)cc1 (centres unmarked) [WX015] | 62 |
| CCCCOCCOc1ccc(-c2ccc(Cl)c(/C=C/C(=O)Nc3ccc([S@@+]([O-])Cc4cncn4CCC)cc3)c2)cc1 [WX016] | 75.1 |
| CCCCOc1ccc(-c2ccc(OC(F)F)c(/C=C/C(=O)Nc3ccc([S@@+]([O-])Cc4cncn4CCC)cc3)c2)cc1 [WX018] | 43.5 |
| CCCCOCCOc1ccc(-c2cccc(/C=C/C(=O)Nc3ccc([S+]([O-])Cc4cncn4CC)cc3)c2)cc1 (centres unmarked) [WX019] | 9.3 |
| CCCCOc1ccc(-c2ccc(Cl)c(/C=C/C(=O)Nc3ccc([S+]([O-])Cc4cncn4CC)cc3)c2)cc1 (centres unmarked) [WX020] | 68.1 |
| CCCCOc1ccc(-c2ccc(Cl)c(/C=C/C(=O)Nc3ccc([S+]([O-])Cc4cncn4CC4CC4)cc3)c2)cc1 (centres unmarked) [WX021] | 64.5 |
| CCCn1cncc1C[S@+]([O-])c1ccc(NC(=O)/C=C/c2cc(-c3ccc(OCCCF)cc3)ccc2Cl)cc1 [WX022] | 205 |
| CCCCOCCOc1ccc(-c2cccc(/C=C/C(=O)Nc3ccc([S+]([O-])Cc4cncn4CC4CC4)cc3)c2)cc1 (centres unmarked) [WX023] | 37.1 |
